These results are taken from paper PMC4867230 (DNA repair, 2016).

Common to all, as to assay: kinetic fluorescence endonuclease assay, purified enzyme
Common to all, as to format: biochemical

Experiment [1] addresses T1, apurinic/apyrimidinic endonuclease 1 (APE1) (Homo sapiens, UniProt P27695).
For experiment [2], the target named is R177A APE1 (Homo sapiens, UniProt P27695, R177A).
In experiment [3] the target is T1, apurinic/apyrimidinic endonuclease 1 (APE1). The source holds these as a separate data set.

T1 sequence (P27695 whole entry): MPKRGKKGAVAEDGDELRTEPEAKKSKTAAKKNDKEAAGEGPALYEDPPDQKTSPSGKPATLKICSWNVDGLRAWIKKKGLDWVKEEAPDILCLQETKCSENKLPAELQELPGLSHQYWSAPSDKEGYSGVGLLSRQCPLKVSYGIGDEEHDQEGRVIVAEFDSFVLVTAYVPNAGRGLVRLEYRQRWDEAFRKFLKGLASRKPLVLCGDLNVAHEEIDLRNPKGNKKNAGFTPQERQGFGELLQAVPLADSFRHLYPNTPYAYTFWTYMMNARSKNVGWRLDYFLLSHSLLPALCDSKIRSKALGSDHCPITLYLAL
Chain of R177A APE1 (P27695 whole entry R177A): as the sequence (P27695 whole entry) above, with R177A counted along it

In turn, `O=C(NCCO)c1cccnc1` [N-(2-hydroxyethyl)nicotinamide] returned a 50% inhibitory concentration (IC50) in experiment [1] of 65 µM.
As for `O=C(NCCO[N+](=O)[O-])c1cccnc1` [nicorandil], the concentration giving a half-maximal response (EC50) turned out to be 2.2 µM in experiment [2] and 0.82 µM in experiment [3].

Usually IC50 stands for the concentration at which inhibition is half-maximal. A lower IC50 goes with greater potency. A word on the EC50: it is the concentration at which the effect is half-maximal.
